Each block holds one molecule with its values, some of them ahead of it.
Test system: HIV-IIIb
Assay: Test A: Antiviral Assays in MT4 Cells
Format: cell-based
Settings: MT-4 cells infected with HIV-IIIb, 5 days incubation, CellTiter-Glo readout
Procedure: The antiviral properties of a compound disclosed herein may be determined using Test A described below.
Test A: Antiviral Assays in MT4 Cells
For the antiviral assay utilizing MT-4 cells, 0.4 μL of […] test concentration of 3-fold serially diluted compound in DMSO was added to 40 μL of cell growth medium (RPMI 1640, 10% FBS, 1% penicillin/Streptomycin, 1% L-Glutamine, 1% HEPES) in each well of 384-well assay plates (10 concentrations) in quadruplicate.
1 mL aliquots of 2×10e6 MT-4 cells are pre-infected for 1 and 3 hrs respectively, @ 37° C. with 25 μL (MT4) or of either cell growth medium (mock-infected) or a fresh 1:250 dilution of an HIV-IIIb concentrated ABI stock (0.004 m.o.i. for MT4 cells). Infected and uninfected cells are diluted in cell growth medium and 35 μL of 2000 (for MT4) cells is added to each well of the assay plates.
Assay plates were then incubated in a 37° C. incubator. After 5 days of incubation, 25 μl of 2× concentrated CellTiter-Glo™ Reagent (catalog # G7573, Promega Biosciences, Inc., Madison, Wis.) was added to each well of the assay plate. Cell lysis was carried out by incubating at room temperature for 2-3 min and then chemiluminescence was read using the Envision reader (PerkinElmer).

[1] = Human immunodeficiency virus 1, IIIB, MT4, 120 h, Table I
[2] = Human immunodeficiency virus 1, IIIB, MT4, 120 h, Table II

SMILES: Cc1ccc2cc(C)c([C@H](OC(C)(C)C)C(=O)O)c(-c3ccc4c5c(ccnc35)CCO4)c2c1 (atropisomer, axis not shown) [Example 15, (S)-2-tert-Butoxy-2-((R)-1-(2,3-dihydropyrano[4,3,2-de]quinolin-7-yl)-3,7-dimethylnaphthalen-2-yl)acetic acid]
- EC50 [1]: 34 nM

SMILES: Cc1ccc2c(-c3ccc4c5c(ccnc35)CCO4)c([C@H](OC(C)(C)C)C(=O)O)c(C)cc2c1 (atropisomer, axis not shown) [Example 16, (S)-2-tert-butoxy-2-((S)-1-(2,3-dihydropyrano[4,3,2-de]quinolin-7-yl)-3,6-dimethylnaphthalen-2-yl)acetic acid]
- EC50 [1]: 1740 nM

SMILES: Cc1cc2cc(C#CC3CC3)ccc2c(-c2ccc3c4c(ccnc24)CCO3)c1[C@H](OC(C)(C)C)C(=O)O (atropisomer, axis not shown) [Example 21, (S)-2-tert-Butoxy-2-((R)-6-(cyclopropylethynyl)-1-(2,3-dihydropyrano[4,3,2-de]quinolin-7-yl)-3-methylnaphthalen-2-yl)acetic acid]
- EC50 [1]: 169 nM

SMILES: CCOc1c(C#N)ccc2c(-c3ccc4c5c(ccnc35)CCO4)c([C@H](OC(C)(C)C)C(=O)O)c(C)cc12 (atropisomer, axis not shown) [Example 22, (S)-2-tert-Butoxy-2-((R)-6-cyano-1-(2,3-dihydropyrano[4,3,2-de]quinolin-7-yl)-5-ethoxy-3-methylnaphthalen-2-yl)acetic acid]
- EC50 [1]: 14 nM

SMILES: CC(C)(C)O[C@H](C(=O)O)c1c(-c2ccc3c4c(ccnc24)CCO3)c2ccccc2c2ccccc12 (atropisomer, axis not shown) [Example 24, (S)-2-tert-Butoxy-2-((R)-10-(2,3-dihydropyrano[4,3,2-de]quinolin-7-yl)phenanthren-9-yl)acetic acid]
- EC50 [1]: 109 nM

- EC50 (Table I): 37 nM
SMILES: COCC(C)(C)O[C@H](C(=O)O)c1c(C)cc2ccccc2c1-c1ccc2c3c(ccnc13)CCO2 (atropisomer, axis not shown) [Example 25, (2S)-2-((R)-1-(2,3-dihydropyrano[4,3,2-de]quinolin-7-yl)-3-methylnaphthalen-2-yl)-2-(1-methoxy-2-methylpropan-2-yloxy)acetic acid]

- EC50 (Table I): 929 nM
SMILES: COCC(C)(C)O[C@H](C(=O)O)c1c(C)cc2ccccc2c1-c1ccc2c3c(ccnc13)CCO2 (atropisomer, axis not shown) [Example 26, (2S)-2-((S)-1-(2,3-Dihydropyrano[4,3,2-de]quinolin-7-yl)-3-methylnaphthalen-2-yl)-2-(1-methoxy-2-methylpropan-2-yloxy)acetic acid]

- EC50 (Table I): 84 nM
SMILES: CCOCC(C)(C)O[C@H](C(=O)O)c1c(C)cc2ccccc2c1-c1ccc2c3c(ccnc13)CCO2 (atropisomer, axis not shown) [Example 27, (2S)-2-((R)-1-(2,3-Dihydropyrano[4,3,2-de]quinolin-7-yl)-3-methylnaphthalen-2-yl)-2-(1-ethoxy-2-methylpropan-2-yloxy)acetic acid]

- EC50 (Table I): 1230 nM
SMILES: CCOCC(C)(C)O[C@H](C(=O)O)c1c(C)cc2ccccc2c1-c1ccc2c3c(ccnc13)CCO2 (atropisomer, axis not shown) [Example 28, (2S)-2-((S)-1-(2,3-Dihydropyrano[4,3,2-de]quinolin-7-yl)-3-methylnaphthalen-2-yl)-2-(1-ethoxy-2-methylpropan-2-yloxy)acetic acid]

- EC50 [1]: 84 nM
SMILES: CCCC(C)(C)O[C@H](C(=O)O)c1c(C)cc2ccccc2c1-c1ccc2c3c(ccnc13)CCO2 (atropisomer, axis not shown) [Example 29, (S)-2-((R)-1-(2,3-Dihydropyrano[4,3,2-de]quinolin-7-yl)-3-methylnaphthalen-2-yl)-2-(2-methylpentan-2-yloxy)acetic acid]

- EC50 [1]: 84 nM
SMILES: CCCCC(C)(C)O[C@H](C(=O)O)c1c(C)cc2ccccc2c1-c1ccc2c3c(ccnc13)CCO2 (atropisomer, axis not shown) [Example 30, (S)-2-((S)-1-(2,3-Dihydropyrano[4,3,2-de]quinolin-7-yl)-3-methylnaphthalen-2-yl)-2-(2-methylhexan-2-yloxy)acetic acid]

- EC50 (Table II): 1660 nM
SMILES: CC(C)(C)O[C@H](C(=O)O)c1c2c(c3ccccc3c1-c1ccc3c4c(ccnc14)CCO3)CCC2 (atropisomer, axis not shown) [Example 33]

- EC50 (Table II): 60 nM
SMILES: CC(C)(C)O[C@H](C(=O)O)c1c2c(c3ccccc3c1-c1ccc3c4c(ccnc14)CCO3)CCC2 (atropisomer, axis not shown) [Example 34]

- EC50 [2]: 4.4 nM
SMILES: Cc1cc2cc(-c3cnc(N4CCN(C)CC4)nc3)ccc2c(-c2ccc3c4c(ccnc24)CCO3)c1[C@H](OC(C)(C)C)C(=O)O (atropisomer, axis not shown) [Example 35]

- EC50 (Table II): 100 nM
SMILES: Cc1cc2cc(-c3cnc(-c4ccccc4)nc3)ccc2c(-c2ccc3c4c(ccnc24)CCO3)c1[C@H](OC(C)(C)C)C(=O)O (atropisomer, axis not shown) [Example 36]

- EC50 (Table II): 4450 nM
SMILES: Cc1cc2cc(-c3cnc(-c4ccccc4)nc3)ccc2c(-c2ccc3c4c(ccnc24)CCO3)c1[C@H](OC(C)(C)C)C(=O)O (atropisomer, axis not shown) [Example 37]

- EC50 (Table II): 45.2 nM
SMILES: Cc1cc2cc(-c3cnc(-c4cncnc4)nc3)ccc2c(-c2ccc3c4c(ccnc24)CCO3)c1[C@H](OC(C)(C)C)C(=O)O (atropisomer, axis not shown) [Example 38]

- EC50 (Table II): 8680 nM
SMILES: Cc1cc2cc(-c3cnc(-c4cncnc4)nc3)ccc2c(-c2ccc3c4c(ccnc24)CCO3)c1[C@H](OC(C)(C)C)C(=O)O (atropisomer, axis not shown) [Example 39]

- EC50 (Table II): 542 nM
SMILES: Cc1cc2cc(-c3ccc(-c4cncnc4)cc3)ccc2c(-c2ccc3c4c(ccnc24)CCO3)c1[C@H](OC(C)(C)C)C(=O)O (atropisomer, axis not shown) [Example 40]

- EC50 (Table II): 40.9 nM
SMILES: Cc1cc2cc(-c3ccc(-c4cncnc4)cc3)ccc2c(-c2ccc3c4c(ccnc24)CCO3)c1[C@H](OC(C)(C)C)C(=O)O (atropisomer, axis not shown) [Example 41]

- EC50 (Table II): 53200 nM
SMILES: Cc1cc2cc(C#Cc3cncnc3)ccc2c(-c2ccc3c4c(ccnc24)CCO3)c1[C@H](OC(C)(C)C)C(=O)O (atropisomer, axis not shown) [Example 42]

- EC50 (Table II): 121 nM
SMILES: Cc1cc2cc(C#Cc3cncnc3)ccc2c(-c2ccc3c4c(ccnc24)CCO3)c1[C@H](OC(C)(C)C)C(=O)O (atropisomer, axis not shown) [Example 43]

- EC50 (Table II): 55.6 nM
SMILES: Cc1cc2cc(-c3ccc4c(cnn4C)c3)ccc2c(-c2ccc3c4c(ccnc24)CCO3)c1[C@H](OC(C)(C)C)C(=O)O (atropisomer, axis not shown) [Example 44]

- EC50 (Table II): 354 nM
SMILES: Cc1cc2cc(-c3ccc4c(cnn4C)c3)ccc2c(-c2ccc3c4c(ccnc24)CCO3)c1[C@H](OC(C)(C)C)C(=O)O (atropisomer, axis not shown) [Example 45]

- EC50 [2]: 59.2 nM
SMILES: COc1ncc(-c2ccc3c(-c4ccc5c6c(ccnc46)CCO5)c([C@H](OC(C)(C)C)C(=O)O)c(C)cc3c2)c(O)n1 (atropisomer, axis not shown) [Example 47]

- EC50 [2]: 10.4 nM
SMILES: Cc1cc2cc(-c3cnc(N(C)C)nc3)ccc2c(-c2ccc3c4c(ccnc24)CCO3)c1[C@H](OC(C)(C)C)C(=O)O (atropisomer, axis not shown) [Example 48]

- EC50 [2]: 13.8 nM
SMILES: COc1ncc(-c2ccc3c(-c4ccc5c6c(ccnc46)CCO5)c([C@H](OC(C)(C)C)C(=O)O)c(C)cc3c2)c(OC)n1 (atropisomer, axis not shown) [Example 49]

- EC50 [2]: 45.1 nM
SMILES: CCOc1ncc(-c2ccc3c(-c4ccc5c6c(ccnc46)CCO5)c([C@H](OC(C)(C)C)C(=O)O)c(C)cc3c2)c(OCC)n1 (atropisomer, axis not shown) [Example 50]

- EC50 [2]: 20.5 nM
SMILES: Cc1cc2cc(-c3cnc(N4CCCC4)nc3)ccc2c(-c2ccc3c4c(ccnc24)CCO3)c1[C@H](OC(C)(C)C)C(=O)O (atropisomer, axis not shown) [Example 51]

- EC50 [2]: 16.8 nM
SMILES: Cc1cc2cc(-c3cnc(N4CCOCC4)nc3)ccc2c(-c2ccc3c4c(ccnc24)CCO3)c1[C@H](OC(C)(C)C)C(=O)O (atropisomer, axis not shown) [Example 52]

- EC50 (Table II): 74.2 nM
SMILES: Cc1cc2cc(-c3cncnc3N)ccc2c(-c2ccc3c4c(ccnc24)CCO3)c1[C@H](OC(C)(C)C)C(=O)O (atropisomer, axis not shown) [Example 53]

- EC50 (Table II): 19400 nM
SMILES: Cc1cc2cc(-c3cncnc3N)ccc2c(-c2ccc3c4c(ccnc24)CCO3)c1[C@H](OC(C)(C)C)C(=O)O (atropisomer, axis not shown) [Example 54]

- EC50 [2]: 7.53 nM
SMILES: Cc1cc2cc(-c3cnc(N)nc3)ccc2c(-c2ccc3c4c(ccnc24)CCO3)c1[C@H](OC(C)(C)C)C(=O)O (atropisomer, axis not shown) [Example 55]

- EC50 (Table II): 30.5 nM
SMILES: Cc1cc2cc(-c3cncnc3C)ccc2c(-c2ccc3c4c(ccnc24)CCO3)c1[C@H](OC(C)(C)C)C(=O)O (atropisomer, axis not shown) [Example 56]

- EC50 (Table II): 10000 nM
SMILES: Cc1cc2cc(-c3cncnc3C)ccc2c(-c2ccc3c4c(ccnc24)CCO3)c1[C@H](OC(C)(C)C)C(=O)O (atropisomer, axis not shown) [Example 57]
